{"source": "paper PMC12820429", "about": "“Modulating food intake by nasal application of peptides targeting melanocortin 4 receptor and ghrelin receptor systems” (Brain Communications, 2026)", "target": "T1, MC4R (Homo sapiens, UniProt P32245)", "T1 construct": "expressed in transfected cells; host or cells: HEK293 (transient transfection, pcDNA3_MC4R plus CRE-luciferase reporter pGL4.29)", "T1 sequence (P32245 whole entry, species assumed)": "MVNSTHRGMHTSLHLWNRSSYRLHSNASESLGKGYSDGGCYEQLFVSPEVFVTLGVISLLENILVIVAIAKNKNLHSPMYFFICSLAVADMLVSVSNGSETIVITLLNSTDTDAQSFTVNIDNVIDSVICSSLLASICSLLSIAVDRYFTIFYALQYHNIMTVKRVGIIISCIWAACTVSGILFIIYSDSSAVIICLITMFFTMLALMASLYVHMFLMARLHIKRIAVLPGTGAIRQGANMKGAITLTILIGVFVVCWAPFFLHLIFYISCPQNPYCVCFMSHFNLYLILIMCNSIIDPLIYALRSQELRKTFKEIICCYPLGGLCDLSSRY", "experiment": "cAMP reporter gene assay", "type": "cell-based", "settings": "normalized to maximal setmelanotide response; n ≥ 2", "experimental": "HEK293 cells were cultured under standard conditions.[33] Cyclic adenosine monophosphate (cAMP) reporter gene assay was carried out with HEK293 cells transiently transfected with pGL4.29[luc2P/CRE/Hygro] (Promega, Madison, WI, USA) and pcDNA3_MC4R plasmids. For transfection, a master mix consisting of 0.6 µL Lipofectamine (Invitrogen by Thermo Fisher) per 25 µL Opti-MEM (Gibco, Grand Island, NY, USA) per well was preincubated at room temperature for 5 min and then gently mixed with 0.125 µg of both plasmids per 25 µL Opti-MEM per well and incubated for 30 min at room temperature. […] Two hundred microlitres of the mixture was added per well to a white 96-well plate (Greiner Bio-One International GmbH, Kremsmünster, Austria), previously coated with 0.1 mg/mL poly-D-lysine (Sigma-Aldrich) in Dulbecco’s phosphate-buffered saline (DPBS) for 1 h at room temperature. Cells were incubated overnight at humidified atmosphere (37°C, 5% CO2). […] The medium was removed, and cells were starved in 50 μL of DMEM/F12 (1:1) without FBS at humidified atmosphere for 1 h. One millimolar peptide stocks in dimethyl sulfoxide (DMSO, Sigma-Aldrich) were diluted in DMEM/F12 (1:1) to desired concentrations. […] The plate was transferred to a plate reader (Infinite M200, Tecan Trading AG, Männedorf, Switzerland), briefly shaken and incubated 5 min at room temperature. […]"}
{"smiles": "CC(=O)N[C@@H](CCCNC(=N)N)C(=O)N[C@H]1CSSC[C@@H](C(N)=O)NC(=O)[C@H](Cc2c[nH]c3ccccc23)NC(=O)[C@H](CCCNC(=N)N)NC(=O)[C@@H](Cc2ccccc2)NC(=O)[C@H](Cc2c[nH]cn2)NC(=O)[C@@H](C)NC1=O", "note": "[peptide 1.1, Ac-R^bCaHfRW^bC-NH2]", "values": [{"measurement": "Emax", "result": "100 ± 4", "unit": "%"}]}
